Biological target: T1, human RXFP1 (Homo sapiens, UniProt Q9HBX9)
T1 sequence (Q9HBX9 1-757): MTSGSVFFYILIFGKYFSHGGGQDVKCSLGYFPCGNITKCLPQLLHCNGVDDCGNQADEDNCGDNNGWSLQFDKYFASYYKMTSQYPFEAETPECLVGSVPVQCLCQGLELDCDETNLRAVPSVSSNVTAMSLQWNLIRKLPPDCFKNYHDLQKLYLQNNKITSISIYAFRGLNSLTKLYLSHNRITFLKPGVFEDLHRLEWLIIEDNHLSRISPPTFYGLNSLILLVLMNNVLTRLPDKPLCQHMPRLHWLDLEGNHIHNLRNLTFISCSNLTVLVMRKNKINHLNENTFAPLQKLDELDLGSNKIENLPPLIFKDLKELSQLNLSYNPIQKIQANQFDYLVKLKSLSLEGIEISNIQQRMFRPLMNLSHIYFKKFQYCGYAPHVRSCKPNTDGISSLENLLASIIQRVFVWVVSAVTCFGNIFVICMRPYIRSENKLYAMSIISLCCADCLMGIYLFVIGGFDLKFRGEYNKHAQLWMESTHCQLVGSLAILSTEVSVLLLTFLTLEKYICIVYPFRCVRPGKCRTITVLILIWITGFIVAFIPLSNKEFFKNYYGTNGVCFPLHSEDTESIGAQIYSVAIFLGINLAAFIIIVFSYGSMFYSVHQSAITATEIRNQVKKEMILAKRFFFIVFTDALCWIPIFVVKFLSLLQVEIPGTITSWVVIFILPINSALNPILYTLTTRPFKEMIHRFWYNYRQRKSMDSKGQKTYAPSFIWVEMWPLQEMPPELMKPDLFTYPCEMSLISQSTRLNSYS
Assay: RXFP1 Hu cAMP (Test A)
Assay type: cell-based
Set-up: expressed in transfected cells; host or cells: Jump-In T-REx CHO-K1 cells (ThermoFisher), induced with 10 ng/ml doxycycline for 24 h
Settings: RXFP1 Hu cAMP; for EC50: read-out: Test A EC50
Procedure, shortened: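 CHO-K1 (Jump-In T-REx), RXFP1 induced w/ 10 ng/ml doxycycline 24 h, cryopreserved. 0.5 mM IBMX final. cAMP by HTRF, 2 h RT, std curve.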

COc1cc(F)c(O[C@H]2CC[C@@](C)(C(=O)O)CC2)cc1C(=O)N[C@@H]1[C@H]2CC[C@H](C2)[C@@H]1C(=O)NCC1(C(F)(F)F)CCC1 [Example 613]
Test A Sinf: 109%
EC50: 76 nM

COc1cc(F)c(O[C@H]2CC[C@@](C)(C(=O)O)CC2)cc1C(=O)N[C@@H]1[C@H]2CC[C@H](C2)[C@@H]1C(=O)NCC1(C(F)(F)F)CC1 [Example 614]
Test A Sinf: 96%

COc1cc(F)c(O[C@H]2CC[C@@](C)(C(=O)O)CC2)cc1C(=O)N[C@@H]1[C@H]2CC[C@H](C2)[C@@H]1C(=O)N[C@H](C)C(C)(C)C#N [Example 615]
Test A Sinf: 100%
EC50: 120 nM

COc1cc(F)c(O[C@H]2CC[C@@](C)(C(=O)O)CC2)cc1C(=O)N[C@@H]1[C@H]2CC[C@H](C2)[C@@H]1C(=O)N[C@@H](C)C(C)(C)C#N [Example 616]
Test A Sinf: 101%
EC50: 2000 nM

COc1cc(F)c(O[C@H]2CC[C@@](C)(C(=O)O)CC2)cc1C(=O)N[C@@H]1[C@H]2CC[C@H](C2)[C@@H]1C(=O)NCC(F)(F)C(F)(F)F [Example 618]
Test A Sinf: 93%
EC50: 100 nM

COc1cc(F)c(O[C@H]2CC[C@@](C)(C(=O)O)CC2)cc1C(=O)N[C@@H]1[C@H]2CC[C@H](C2)[C@@H]1C(=O)NC1CC(F)(F)C1 [Example 619]
Test A Sinf: 103%
EC50: 390 nM

COc1cc(F)c(O[C@H]2CC[C@@](C)(C(=O)O)CC2)cc1C(=O)N[C@@H]1[C@H]2CC[C@H](C2)[C@@H]1C(=O)NCC1CC(F)(F)C1 [Example 620]
Test A Sinf: 93%
EC50: 690 nM

COc1cc(C#N)c(O[C@H]2CC[C@@](C)(C(=O)O)CC2)cc1C(=O)N[C@@H]1[C@H]2CC[C@H](C2)[C@@H]1C(=O)NC1CC(F)(F)C1 [Example 623]
Test A Sinf: 104%
EC50: 180 nM

(1R,4s)-4-(2-Cyano-4-fluoro-5-(((2S*,3R*)-3-(((1-methylcyclobutyl)methyl)carbamoyl)bicyclo[2.2.2]octan-2-yl)carbamoyl)phenoxy)-1-methylcyclohexane-1-carboxylic acid [Example 589]
Test A Sinf: 83%

(1R,4s)-4-(2-Cyano-4-methoxy-5-(((1R*,2S*,3R*,4S*)-3-(((1-methylcyclobutyl)methyl)carbamoyl)bicyclo[2.2.2]oct-5-en-2-yl)carbamoyl)phenoxy)-1-methylcyclohexane-1-carboxylic acid [Example 541]
Test A Sinf: 100%

(1R,4s)-4-(2-Cyano-4-methoxy-5-(((1S*,2R*)-2-(((1-methylcyclobutyl)methyl)carbamoyl)cyclobutyl)carbamoyl)phenoxy)-1-methylcyclohexane-1-carboxylic acid [Example 573]
Test A Sinf: 94%

(1R,4s)-4-(2-Fluoro-4-methoxy-5-(((1R*,2S*,3R*,4S*)-3-(((1-methylcyclobutyl)methyl)carbamoyl)bicyclo[2.2.2]oct-5-en-2-yl)carbamoyl)phenoxy)-1-methylcyclohexane-1-carboxylic acid [Example 545]
Test A Sinf: 91%

(1R,4s)-4-(2-Fluoro-4-methoxy-5-(((1S*,2R*)-2-(neopentylcarbamoyl)cyclobutyl)carbamoyl)phenoxy)-1-methylcyclohexane-1-carboxylic acid [Example 569]
Test A Sinf: 97%

(1R,4s)-4-(2-Fluoro-4-methoxy-5-(((1S*,2R*,4R*)-4-methoxy-2-(neopentylcarbamoyl)cyclopentyl)carbamoyl)phenoxy)-1-methylcyclohexane-1-carboxylic acid [Example 547]
Test A Sinf: 114%

(1R,4s)-4-(2-Fluoro-4-methoxy-5-(((1S*,2S*,3R*,4R*)-3-((3-((trifluoromethyl)sulfonyl)phenyl)carbamoyl)bicyclo[2.2.1]heptan-2-yl)carbamoyl)phenoxy)-1-methylcyclohexane-1-carboxylic acid [Example 587]
Test A Sinf: 113%

(1R,4s)-4-(2-Fluoro-4-methoxy-5-(((3S*,4R*)-4-(((1-methylcyclobutyl)methyl)carbamoyl)tetrahydrofuran-3-yl)carbamoyl)phenoxy)-1-(hydroxymethyl)cyclohexane-1-carboxylic acid [Example 581]
Test A Sinf: 94%

(1R,4s)-4-(2-Fluoro-4-methoxy-5-(((3S*,4R*)-4-(neopentylcarbamoyl)tetrahydrofuran-3-yl)carbamoyl)phenoxy)-1-(hydroxymethyl)cyclohexane-1-carboxylic acid [Example 579]
Test A Sinf: 120%

(1R,4s)-4-(2-Fluoro-4-methoxy-5-(((3S*,4R*)-4-(neopentylcarbamoyl)tetrahydrofuran-3-yl)carbamoyl)phenoxy)-1-methylcyclohexane-1-carboxylic acid [Example 567]
Test A Sinf: 86%

(1R,4s)-4-(2-Fluoro-5-(((1S*,2R*)-2-((4-fluoro-3-(pentafluoro-λ6-sulfaneyl)phenyl)carbamoyl)cyclobutyl)carbamoyl)-4-methoxyphenoxy)-1-methylcyclohexane-1-carboxylic acid [Example 571]
Test A Sinf: 100%

(1R,4s)-4-(2-Fluoro-5-(((1S*,2S*,5S*)-2-hydroxy-5-((3-((trifluoromethyl)sulfonyl)phenyl)carbamoyl)cyclopentyl)carbamoyl)-4-methoxyphenoxy)-1-methylcyclohexane-1-carboxylic acid [Example 529]
Test A Sinf: 96%

(1R,4s)-4-(2-Fluoro-5-(((3S*,4R*)-4-((4-fluoro-3-(pentafluoro-λ6-sulfaneyl)phenyl)carbamoyl)tetrahydrofuran-3-yl)carbamoyl)-4-methoxyphenoxy)-1-methylcyclohexane-1-carboxylic acid [Example 565]
Test A Sinf: 113%

(1R,4s)-4-(2-Fluoro-5-(((3S*,4S*)-4-((4-fluoro-3-(pentafluoro-λ6-sulfaneyl)phenyl)carbamoyl)tetrahydro-2H-pyran-3-yl)carbamoyl)-4-methoxyphenoxy)-1-methylcyclohexane-1-carboxylic acid [Example 575]
Test A Sinf: 101%

(1R,4s)-4-(2-fluoro-4-methoxy-5-(((1S*,2S*,5S*)-2-methoxy-5-((3-((trifluoromethyl)sulfonyl)phenyl)carbamoyl)cyclopentyl)carbamoyl)phenoxy)-1-methylcyclohexane-1-carboxylic acid [Example 527]
Test A Sinf: 101%

(1R,4s)-4-(2-fluoro-4-methoxy-5-(((3S*,4S*)-3-((3-((trifluoromethyl)sulfonyl)phenyl)carbamoyl)tetrahydro-2H-pyran-4-yl)carbamoyl)phenoxy)-1-methylcyclohexane-1-carboxylic acid [Example 519]
Test A Sinf: 101%

(1R,4s)-4-(2-fluoro-5-(((1S*,2S*,3R*,4R*)-3-((4-fluoro-3-(pentafluoro-λ6-sulfaneyl)phenyl)carbamoyl)bicyclo[2.2.1]heptan-2-yl)carbamoyl)-4-methoxyphenoxy)-1-methylcyclohexane-1-carboxylic acid [Example 521]
Test A Sinf: 99%
